Entries after “also recorded” stand apart in the source; their conditions may differ.
Key:
pancrelipase [1] = experiment: Pancrelipase reactivation by colipase; format: biochemical; details: for % Lipase Activity with Colipase: colipase 5 μg/mL; for effect of added colipase on the inhibition of pancrelipase (in words): excess colipase added to reaction mixture
Protocol: In brief, the above lipase assay procedure was used with the following variation: colipase solution replaced the distilled water so the concentration of colipase in the final reaction mixture was 5 μg/mL.

HIV patients = details: Kakuda et al. 1998; cited from earlier work
pancrelipase [2] = experiment: Recovery of pancrelipase activity after inhibition, by addition of excess lipase; format: biochemical
Protocol: The above procedure was used to monitor pancrelipase activity with the exception that drug was not preincubated with the substrate. At time zero 1.0 mL of pancrelipase was added to initiate the reaction. At five (5) minutes, 1.0 mL of HAART drug solution was added to the reaction mixture to cause inhibition of lipase activity. At twelve (12) minutes an additional 1.0 mL of pancrelipase was added to the reaction mixture to overcome HAART inhibition. The reaction was monitored for twenty (20) minutes.

pancrelipase [3] = biological target: T1, pancrelipase (Sus scrofa, UniProt P00591); experiment: Lipase assay (USP titrimetric): inhibition of pancrelipase by HAART drugs and excipients; format: biochemical
T1 sequence (P00591 1-450): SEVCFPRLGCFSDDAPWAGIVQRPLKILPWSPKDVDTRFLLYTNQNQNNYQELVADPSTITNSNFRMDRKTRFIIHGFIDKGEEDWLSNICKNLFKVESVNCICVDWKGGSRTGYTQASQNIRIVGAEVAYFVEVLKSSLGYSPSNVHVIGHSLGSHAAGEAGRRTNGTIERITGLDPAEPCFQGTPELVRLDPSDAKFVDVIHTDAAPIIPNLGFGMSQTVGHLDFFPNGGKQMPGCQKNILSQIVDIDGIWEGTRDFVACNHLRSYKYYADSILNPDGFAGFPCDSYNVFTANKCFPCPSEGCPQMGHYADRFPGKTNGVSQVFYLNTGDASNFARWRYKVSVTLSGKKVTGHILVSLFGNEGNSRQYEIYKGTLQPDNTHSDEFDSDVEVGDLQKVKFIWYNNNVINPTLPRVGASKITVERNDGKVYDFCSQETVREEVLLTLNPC
Protocol: The enzyme sources consisted of USP Reference Standard Pancrelipase, USP Reference Standard Trypsin, colipase (Sigma Chemical Co.), and enterokinase (ICN Biochemicals). Appropriate concentrations of enzyme reference standard were prepared in cold distilled water, as described in USP reference assay procedures. The Infectious Disease Clinic in Somerville, N.J. provided the HAART medications. Pure drugs could not be obtained so commercial drug preparations were used in the assays.
One unit (U) of lipase activity is defined as the amount of enzyme that liberates one μequivalent of free fatty acid from triglycerides per minute at pH 9.0 and 37° C. Lipase activity (U/mg) was determined by a lipase specific titrimetric assay described in the United States Pharmacopeia (USP), Volume XXII. In brief, the substrate consists of 10% olive oil in acacia solution, 40-mg/mL sodium taurocholate, 0.075M calcium chloride, 0.05M Tris in 3.0M NaCl buffer solution (pH 7.5) and distilled water. The emulsified substrate is incubated at 37° C. and brought to pH 9.0 with 0.02N NaOH. At time zero, 1.0 mL of enzyme solution was added. A pH stat autotitrator was used to maintain pH 9.0 and the volume of 0.02 N NaOH dispensed per unit time was recorded for five (5) minutes. From the initial slope of this plot, lipase activity was calculated using the following equation: […]

Molecule	% Lipase Activity No Colipase (pancrelipase [1]; Drug Conc. 0.002 mg/mL) [%]	% Lipase Activity with Colipase (pancrelipase [1]; Drug Conc. 0.002 mg/mL) [%]	effect of added colipase on the inhibition of pancrelipase (in words) (pancrelipase [1])	HIV patients experiencing diarrhea (HIV patients)	% Pancrelipase Activity (pancrelipase [2]; after addition of drug solution at 5 minutes, before excess lipase) [%]	% Reactivation of Pancrelipase (pancrelipase [2]; after additional 1.0 mL of pancrelipase at 12 minutes) [%]	inhibition of pancrelipase (in words) (pancrelipase [3])	% Lipase Activity No Colipase (pancrelipase [1]; Drug Conc. 10.0 mg/mL) [%]	% Lipase Activity with Colipase (pancrelipase [1]; Drug Conc. 10.0 mg/mL) [%]
CCCCCCCCCCC[C@@H](C[C@@H]1OC(=O)[C@H]1CCCCCC)OC(=O)[C@H](CC(C)C)NC=O [ORLISTAT ®, reference compound]	37	29	no effect						
Cc1c(O)cccc1C(=O)N[C@@H](CSc1ccccc1)[C@H](O)CN1C[C@H]2CCCC[C@H]2C[C@H]1C(=O)NC(C)(C)C [nelfinavir, Nelfinavir]				12-20%					
D-α-tocopheryl polyethylene glycol 1000 succinate [TPGS]			Pancrelipase inhibition was reversed; also recorded: restored pancrelipase activity		55	98	significant inhibition; also recorded: significantly inhibited	21	79
